# Results from ChEMBL document CHEMBL1145819 (J Med Chem, 2003).
# Values joined by “and” are separate entries in the source; they are usually repeats but may differ in a detail not shown here. Identical values can stand only once.
# Columns and labels:
# [1] = biological target: T1, 5-hydroxytryptamine receptor 7 (Homo sapiens, UniProt P34969); assay: Binding affinity towards human 5-hydroxytryptamine 7 receptor
# [2] = biological target: T2, 5-hydroxytryptamine receptor 6 (Homo sapiens, UniProt P50406)
# T2 sequence (P50406 whole entry): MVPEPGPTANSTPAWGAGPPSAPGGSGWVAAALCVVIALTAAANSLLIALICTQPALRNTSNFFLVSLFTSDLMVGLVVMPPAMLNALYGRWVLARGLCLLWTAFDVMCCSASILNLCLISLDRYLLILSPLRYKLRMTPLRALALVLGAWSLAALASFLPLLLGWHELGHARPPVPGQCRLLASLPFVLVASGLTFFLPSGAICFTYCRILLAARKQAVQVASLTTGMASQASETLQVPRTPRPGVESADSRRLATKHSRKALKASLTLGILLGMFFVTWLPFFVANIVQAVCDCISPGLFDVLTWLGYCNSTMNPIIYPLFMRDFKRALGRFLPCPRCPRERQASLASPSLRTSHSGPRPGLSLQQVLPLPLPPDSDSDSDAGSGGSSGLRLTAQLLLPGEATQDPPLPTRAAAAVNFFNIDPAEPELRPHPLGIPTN
# [3] = biological target: T2, 5-hydroxytryptamine receptor 6; assay: Antagonistic activity towards 5-hydroxytryptamine 6 receptor was evaluated in cAMP assay; format: functional
# [4] = Antagonistic activity of compound in cAMP accumulation was evaluated; format: functional
# [5] = biological target: 5-hydroxytryptamine receptor 2A (Homo sapiens, UniProt P28223); assay: Binding affinity towards 5-hydroxytryptamine 2A receptor
# Chain of 5-hydroxytryptamine receptor 2A (P28223 whole entry): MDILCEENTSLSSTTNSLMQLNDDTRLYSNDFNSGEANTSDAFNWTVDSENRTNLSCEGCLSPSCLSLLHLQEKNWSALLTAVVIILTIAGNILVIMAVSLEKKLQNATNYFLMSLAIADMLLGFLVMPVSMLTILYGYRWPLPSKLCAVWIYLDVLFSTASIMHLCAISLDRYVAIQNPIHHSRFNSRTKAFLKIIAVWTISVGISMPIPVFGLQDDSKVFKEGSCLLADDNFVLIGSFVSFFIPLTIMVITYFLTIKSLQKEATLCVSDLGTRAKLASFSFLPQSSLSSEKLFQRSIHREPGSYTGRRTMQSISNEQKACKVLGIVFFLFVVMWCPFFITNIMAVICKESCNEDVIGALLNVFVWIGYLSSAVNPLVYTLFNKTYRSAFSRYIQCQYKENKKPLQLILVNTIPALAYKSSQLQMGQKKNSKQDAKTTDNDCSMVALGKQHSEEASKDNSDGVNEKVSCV
# [6] = biological target: T3, Alpha-2A adrenergic receptor (Homo sapiens, UniProt P08913); assay: Binding affinity towards Alpha-2 adrenergic receptor
# T3 sequence (P08913 whole entry): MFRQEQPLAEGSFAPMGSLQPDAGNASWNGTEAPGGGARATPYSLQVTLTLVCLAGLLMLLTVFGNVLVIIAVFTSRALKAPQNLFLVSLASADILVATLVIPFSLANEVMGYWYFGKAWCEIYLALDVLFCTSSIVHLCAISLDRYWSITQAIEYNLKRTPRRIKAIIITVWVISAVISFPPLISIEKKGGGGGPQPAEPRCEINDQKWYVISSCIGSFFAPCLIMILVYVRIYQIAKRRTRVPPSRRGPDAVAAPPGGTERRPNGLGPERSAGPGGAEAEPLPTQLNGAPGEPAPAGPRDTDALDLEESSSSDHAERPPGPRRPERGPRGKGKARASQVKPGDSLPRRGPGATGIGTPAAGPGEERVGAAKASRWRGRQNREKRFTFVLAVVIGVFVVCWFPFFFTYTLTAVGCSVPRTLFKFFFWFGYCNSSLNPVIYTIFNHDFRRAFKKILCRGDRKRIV
# [7] = biological target: T4, Alpha-1A adrenergic receptor (Homo sapiens, UniProt P35348); assay: Binding affinity towards alpha-1-adrenergic receptor
# T4 sequence (P35348 whole entry): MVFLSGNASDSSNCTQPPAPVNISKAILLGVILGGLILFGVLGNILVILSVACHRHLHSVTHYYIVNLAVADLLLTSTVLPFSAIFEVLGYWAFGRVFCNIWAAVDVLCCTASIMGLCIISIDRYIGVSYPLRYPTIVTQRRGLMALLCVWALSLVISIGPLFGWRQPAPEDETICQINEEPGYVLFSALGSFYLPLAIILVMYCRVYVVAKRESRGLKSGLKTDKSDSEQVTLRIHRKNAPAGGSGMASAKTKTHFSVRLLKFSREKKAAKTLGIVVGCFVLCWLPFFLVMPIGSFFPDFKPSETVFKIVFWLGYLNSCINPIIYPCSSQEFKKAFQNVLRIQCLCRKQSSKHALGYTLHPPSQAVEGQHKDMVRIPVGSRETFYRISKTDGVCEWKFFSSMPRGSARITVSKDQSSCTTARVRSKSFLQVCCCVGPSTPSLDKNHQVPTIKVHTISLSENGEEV
# [8] = biological target: T5, 5-hydroxytryptamine receptor 5A (Homo sapiens, UniProt P47898); assay: Binding affinity towards human 5-hydroxytryptamine 5A receptor
# T5 sequence (P47898 whole entry): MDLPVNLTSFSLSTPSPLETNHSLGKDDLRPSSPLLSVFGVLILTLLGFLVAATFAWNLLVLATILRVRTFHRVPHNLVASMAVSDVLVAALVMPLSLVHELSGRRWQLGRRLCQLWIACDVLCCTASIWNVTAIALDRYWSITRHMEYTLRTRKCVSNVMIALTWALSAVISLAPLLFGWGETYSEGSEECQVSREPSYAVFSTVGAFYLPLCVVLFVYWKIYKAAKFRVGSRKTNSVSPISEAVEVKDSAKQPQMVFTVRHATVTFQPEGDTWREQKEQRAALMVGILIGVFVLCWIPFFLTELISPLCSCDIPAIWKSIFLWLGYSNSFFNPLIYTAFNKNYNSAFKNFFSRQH
# [9] = biological target: T2, 5-hydroxytryptamine receptor 6; assay: Binding affinity towards human 5-hydroxytryptamine 6 receptor was evaluated using [3H]-LSD as radioligand
# [10] = biological target: T5, 5-hydroxytryptamine receptor 5A; assay: Binding affinity towards human 5-hydroxytryptamine 5A receptor was evaluated using [3H]-5-CT as radioligand
# [11] = biological target: T1, 5-hydroxytryptamine receptor 7
# [12] = biological target: T2, 5-hydroxytryptamine receptor 6; assay: Binding affinity towards human 5-hydroxytryptamine 6 receptor was evaluated using [125I]-2-iodo LSD as radioligand
# [13] = biological target: T6, 5-hydroxytryptamine receptor 5A (Mus musculus, UniProt P30966); assay: Binding affinity towards mouse 5-hydroxytryptamine 5A receptor was evaluated using [3H]LSD as radioligand
# T6 sequence (P30966 whole entry): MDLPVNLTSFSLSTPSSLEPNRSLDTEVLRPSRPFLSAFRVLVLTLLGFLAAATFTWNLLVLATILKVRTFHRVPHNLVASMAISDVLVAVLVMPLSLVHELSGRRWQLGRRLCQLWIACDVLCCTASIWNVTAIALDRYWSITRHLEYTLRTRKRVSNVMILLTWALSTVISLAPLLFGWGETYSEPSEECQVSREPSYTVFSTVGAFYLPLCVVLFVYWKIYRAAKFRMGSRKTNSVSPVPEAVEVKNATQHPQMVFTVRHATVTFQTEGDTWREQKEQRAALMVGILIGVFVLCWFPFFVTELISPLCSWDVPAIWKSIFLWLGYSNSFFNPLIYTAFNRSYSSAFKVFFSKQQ
# [14] = biological target: T6, 5-hydroxytryptamine receptor 5A; assay: Binding affinity towards mouse 5-hydroxytryptamine 5A receptor
# [15] = Antagonistic activity of compound in 5-HT induced cAMP accumulation; format: functional
# [16] = biological target: 5-hydroxytryptamine receptor 7 (Rattus norvegicus, UniProt P32305); assay: Binding affinity towards rat 5-hydroxytryptamine 7 receptor
# Chain of 5-hydroxytryptamine receptor 7 (Rattus norvegicus, UniProt P32305) (P32305 whole entry): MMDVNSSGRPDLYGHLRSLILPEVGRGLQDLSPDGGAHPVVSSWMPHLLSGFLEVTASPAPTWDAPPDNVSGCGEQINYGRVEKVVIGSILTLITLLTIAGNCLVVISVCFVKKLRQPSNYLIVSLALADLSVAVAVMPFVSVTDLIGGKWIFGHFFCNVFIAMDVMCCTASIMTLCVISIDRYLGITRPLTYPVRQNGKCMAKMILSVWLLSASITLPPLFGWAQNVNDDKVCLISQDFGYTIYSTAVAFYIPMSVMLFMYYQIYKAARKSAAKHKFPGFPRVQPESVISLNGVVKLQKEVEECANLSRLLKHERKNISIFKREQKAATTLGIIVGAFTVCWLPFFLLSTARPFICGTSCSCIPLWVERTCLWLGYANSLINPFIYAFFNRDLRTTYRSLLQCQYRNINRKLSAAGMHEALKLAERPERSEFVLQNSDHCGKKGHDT
# [17] = biological target: Serotonin 2 (5-HT2) receptor (Homo sapiens, UniProt P41595+P28223+P28335); assay: Binding affinity towards 5-HT2 receptor; format: protein assay
# [18] = biological target: T2, 5-hydroxytryptamine receptor 6; assay: Antagonistic activity towards 5-hydroxytryptamine 6 receptor; format: functional; conditions: read-out: pA2 (converted)
# [19] = biological target: T6, 5-hydroxytryptamine receptor 5A; assay: Binding affinity towards murine 5-hydroxytryptamine 5A receptor
# [20] = biological target: T2, 5-hydroxytryptamine receptor 6; assay: Binding affinity towards human 5-hydroxytryptamine 6 receptor
# [21] = biological target: T7, 5-hydroxytryptamine receptor 3A (Homo sapiens, UniProt P46098); assay: Binding affinity towards 5-hydroxytryptamine 3 receptor
# T7 sequence (P46098 whole entry): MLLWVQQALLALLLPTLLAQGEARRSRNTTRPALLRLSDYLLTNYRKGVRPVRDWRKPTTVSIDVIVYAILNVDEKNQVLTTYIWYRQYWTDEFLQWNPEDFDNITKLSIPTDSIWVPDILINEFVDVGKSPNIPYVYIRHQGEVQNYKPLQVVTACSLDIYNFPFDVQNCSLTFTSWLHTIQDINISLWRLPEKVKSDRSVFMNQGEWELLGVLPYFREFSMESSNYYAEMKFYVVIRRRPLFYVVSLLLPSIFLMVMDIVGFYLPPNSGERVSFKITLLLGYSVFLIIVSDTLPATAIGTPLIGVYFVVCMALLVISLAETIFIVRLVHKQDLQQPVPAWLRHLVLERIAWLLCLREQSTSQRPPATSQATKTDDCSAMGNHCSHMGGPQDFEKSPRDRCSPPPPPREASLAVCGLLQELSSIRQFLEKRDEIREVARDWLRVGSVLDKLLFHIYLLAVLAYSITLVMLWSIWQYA
# [22] = biological target: T6, 5-hydroxytryptamine receptor 5A; assay: Binding affinity towards mouse 5-hydroxytryptamine 5A receptor was evaluated using [3H]- LSD as radioligand
# [23] = biological target: T5, 5-hydroxytryptamine receptor 5A; assay: Binding affinity towards 5-hydroxytryptamine 5A receptor
# [24] = Antagonistoc activity of compound for 5-CT-mediated adenylate cyclase activity; format: functional
# [25] = biological target: T1, 5-hydroxytryptamine receptor 7; remark: listed apart in the source
# T1 sequence (P34969 whole entry): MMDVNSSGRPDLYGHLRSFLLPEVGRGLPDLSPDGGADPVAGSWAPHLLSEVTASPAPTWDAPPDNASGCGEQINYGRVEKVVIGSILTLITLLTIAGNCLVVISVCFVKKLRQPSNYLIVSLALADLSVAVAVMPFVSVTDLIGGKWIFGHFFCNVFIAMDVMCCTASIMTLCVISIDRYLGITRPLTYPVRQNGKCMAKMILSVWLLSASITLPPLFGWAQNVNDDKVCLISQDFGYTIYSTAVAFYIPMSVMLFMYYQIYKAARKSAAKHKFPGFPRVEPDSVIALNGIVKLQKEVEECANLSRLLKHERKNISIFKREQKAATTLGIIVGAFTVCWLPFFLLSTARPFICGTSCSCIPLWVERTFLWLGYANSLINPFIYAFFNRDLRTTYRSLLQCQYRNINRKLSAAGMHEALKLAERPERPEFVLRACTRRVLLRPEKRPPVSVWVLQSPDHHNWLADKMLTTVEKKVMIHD
structure (smiles),measurement,setting,value
Cc1cccc(S(=O)(=O)N2CCC[C@@H]2CCN2CCC(C)CC2)c1 [SB-258741],Ki,[1],3 nM
CNc1cc(NC)cc(NS(=O)(=O)c2ccc(N)cc2)c1,Ki,[2],200 nM
CN1CCN(C2=Nc3ccccc3Oc3ccc(Cl)cc32)CC1 [LOXAPINE],Ki,[2],15 nM
Cc1cn(S(=O)(=O)c2ccc(N)cc2)c2ccccc12,IC50,[3],300 nM
same,Kb,[3]; read-out: pA2 (converted),100 nM
same,Ki,[2],12 nM
COc1ccc(NS(=O)(=O)c2sc3ccc(Cl)cc3c2C)cc1N1CCN2CCC[C@H]2C1,pKb,[4],7.7
CN1CCc2ccc3c4c2[C@H]1Cc1cccc(c1-4)[C@@H]3N,Ki,[5],469 nM
same,Ki,[1],18 nM
same,Ki,[6],92.8 nM
same,Ki,[7],373 nM
C1CCN2CCNCC2C1 (stereo not drawn),Ki,[2],5 nM
Nc1ccc(S(=O)(=O)Nc2cc(N)nc(Br)c2)cc1,Ki,[2],55 nM
COc1cc(CC(C)N)c(OC)cc1I (stereo not drawn),Ki,[8],> 1000 nM
COc1ccc2c(c1)c(CCN(C)C)cn2Cc1ccccc1,Ki,[2],6.5 nM
O=c1[nH]c2ccccc2n1C1CCN(CCCC(c2ccc(F)cc2)c2ccc(F)cc2)CC1 [PIMOZIDE],Ki,[2],71 nM
O=C(CCCN1CCC2(CC1)C(=O)NCN2c1ccccc1)c1ccc(F)cc1 [SPIPERONE],Ki,[9],1590 nM
same,Ki,[10],63000 nM
same,Ki,[2],1590 nM
CNS(=O)(=O)c1ccc2[nH]cc(CCN(C)C)c2c1,Ki,[9],2600 nM
same,Ki,[8],5000 nM
same,Ki,[10],5000 nM
same,Ki,[11],950 nM
Cc1[nH]c2ccc(O)cc2c1CCN,Ki,[12],400 nM
same,Ki,[8],> 10000 nM
same,Ki,[13],> 10000 nM
c1ccc2c3c([nH]c2c1)CNCC3 [TRYPTOLINE],Ki,[14],2470 nM
same,Ki,[2],> 5000 nM
CN(C)CCc1cn(S(=O)(=O)c2ccc(N)cc2)c2ccccc12,Ki,[2],0.8 nM
COc1ccc(NS(=O)(=O)c2sc3ccc(Cl)cc3c2C)cc1N1CCN(C)CC1,pKb,[4],8.5
CNc1cc(Br)cc(NS(=O)(=O)c2ccc(N)cc2)c1,Ki,[2],20 nM
OCCN1CCN(CCCN2c3ccccc3Sc3ccc(Cl)cc32)CC1 [PERPHENAZINE],Ki,[1],23 nM
CNc1cc(NS(=O)(=O)c2ccc(N)cc2)nc(NC)n1,pA2,[15],6.75
COc1ccc(NS(=O)(=O)c2ccc(Br)cc2)cc1N1CCN(C)CC1,pKb,[4],7.8
CO[C@@]1(C)c2cccc3c2-c2c1ccc1c2[C@@H](C3)N(C)CC1,Ki,[1],1.1 nM
CN1CCN(C2=Nc3ccccc3Nc3sccc32)CC1,Ki,[16]; read-out: Ki,104 nM
COc1ccc2c(c1)c(CCN(C)C)cn2-c1ccccc1,Ki,[2],33 nM
Nc1ccc(S(=O)(=O)Nc2cc(Br)cc3[nH]ccc23)cc1,Ki,[2],50 nM
CN(C)CC/C=C1/c2ccccc2Sc2ccc(Cl)cc21 [CHLORPROTHIXENE],Ki,[16]; read-out: Ki,5.6 nM
same,Ki,[2],3 nM
O=C1Nc2cccc3c2C1(CCCN1CCN(c2ccccc2)CC1)CCC3 (stereo not drawn),Ki,[17],16 nM
CNC(=O)Cn1c2c(c3ccccc31)CCN(CCCCC13CCCc4cccc(c41)NC3=O)C2 (stereo not drawn),Ki,[17],> 1000 nM
same,Ki,[1],4 nM
CO[C@]1(C)c2cccc3c2-c2c1ccc1c2[C@@H](C3)N(C)CC1,Ki,[1],1.1 nM
COc1ccc2c(CCN(C)C)c[nH]c2c1,Ki,[2],8000 nM
CN(C)Cc1cn(S(=O)(=O)c2ccccc2)c2ccccc12,IC50,[3],800 nM
same,Ki,[2],3.1 nM
CN1C[C@H](CNC(=O)OCc2ccccc2)C[C@@H]2c3cccc4[nH]cc(c34)C[C@H]21,Ki,[9],400 nM
same,Ki,[16]; read-out: Ki,60 nM
same,Ki,[11],6.4 nM
CN(C)Cc1cn(S(=O)(=O)c2ccc(N)cc2)c2ccccc12,Ki,[2],6.9 nM
O=C1Nc2cccc3c2C1(CCCCN1CC=C(c2ccccc2)CC1)CCC3 (stereo not drawn),Ki,[17],98 nM
Cc1cccc(C#N)c1-c1cccc2c1-c1cccc3c1[C@@H](C2)N(C)CC3,Ki,[1],20.8 nM and 3.79 nM
COc1ccc2c(c1)c(CCN(C)C)cn2S(=O)(=O)c1ccccc1,Ki,[2],2.1 nM
same,Kb,[18],1.32 nM
O=C(c1ccc(F)cc1)C1CCN(CCn2c(=O)[nH]c3ccccc3c2=O)CC1 [KETANSERIN],Ki,[8],20000 nM
same,Ki,[10],20000 nM
Cc1ccc(S(=O)(=O)n2cc3c4c(cccc42)[C@H](O)[C@@H](N)C3)cc1,Ki,[2],7.2 nM
COc1cc(N)c(Cl)cc1C(=O)NC1CN2CCC1CC2 (stereo not drawn) [ZACOPRIDE],Ki,[8],16000 nM
Clc1cccc(N2CCNCC2)c1 [CHLOROPHENYLPIPERAZINE],Ki,[19],8700 nM
same,Ki,[12],2300 nM
same,Ki,[13],8700 nM
CN1C[C@@H](NS(=O)(=O)N(C)C)C[C@@H]2c3cccc4[nH]cc(c34)C[C@H]21 [DISULERGINE],Ki,[1],18 nM
same,Ki,[16]; read-out: Ki,21 nM
NCCc1c[nH]c2ccc(C(N)=O)cc12,Ki,[9],720 nM
same,Ki,[8],20 nM
same,Ki,[10],20 nM
C[N+](C)(C)CCc1c[nH]c2ccc(O)cc12,Ki,[8],> 10000 nM
COc1ccc2c(c1)c(CCN(C)C)cn2S(=O)(=O)c1ccc(N)cc1,Ki,[2],2 nM
CNc1cc(NS(=O)(=O)c2ccc(N)cc2)nc(N)n1,Ki,[2],1000 nM
CN1CCc2cccc3c2[C@H]1Cc1cccc(-c2ccccc2)c1-3,Ki,[1],9.78 nM
CNc1cc(NS(=O)(=O)c2ccc(N)cc2)cc(NC)n1,pA2,[15],7.1
same,Ki,[20],12 nM
CC1CCCN(CCC(C)N(C)S(=O)(=O)c2cccc3ccccc23)C1 (stereo not drawn),Ki,[1],32 nM and 125 nM and 65 nM
COc1cccc2[nH]cc(CCN(C)C)c12,Ki,[2],154 nM
CCc1c(C)[nH]c2c1C(=O)C(CN1CCOCC1)CC2 (stereo not drawn) [MOLINDONE],Ki,[1],265 nM
COc1ccc2c(c1)c1c(n2S(=O)(=O)c2ccccc2)CCCC1CN(C)C (stereo not drawn),Ki,[2],1.5 nM
CCCN(CCC)C1CCc2cccc(O)c2C1 (stereo not drawn) [8-OH-DPAT],Ki,[9],> 10000 nM
same,Ki,[16],150 nM
CN(C)CCc1cn(S(=O)(=O)c2ccccc2)c2ccccc12,Ki,[2],4.1 nM
CO[C@H]1c2cccc3c2c(cn3S(=O)(=O)c2ccc(C)cc2)C[C@@H]1N,Ki,[2],130 nM
CN1CCN(C2=Nc3cc(Cl)ccc3Nc3ccccc32)CC1 [CLOZAPINE],Ki,[10],1000 nM
Oc1ccccc1N1CCNCC1,Ki,[19],215 nM
Cn1c2c(c3ccccc31)CNCC2,Ki,[19],5300 nM
COc1cccc2c(CCN(C)C)c[nH]c12,Ki,[2],19600 nM
COc1ccc2[nH]c(C)c(CCN)c2c1,Ki,[21],> 10000 nM
same,Ki,[2],80 nM
O=S(=O)(c1cccc2ccccc12)n1ccc2ccc(N3CCN4CCCC4C3)cc21 (stereo not drawn),Ki,[2],0.7 nM
c1ccc2nc(N3CCNCC3)ccc2c1 [QUIPAZINE],Ki,[19],> 10000 nM
same,Ki,[13],> 10000 nM
c1ccc2c(N3CCNCC3)cccc2c1,Ki,[22],40 nM
CN1CCc2ccc3c4c2[C@H]1Cc1cccc(c1-4)[C@H]3N,Ki,[1],13.4 nM
Cl.O=S(=O)(c1ccc2cc[nH]c2c1)N1CCC[C@@H]1CCN1CCC(Oc2ccc(Cl)cc2)CC1,Ki,[23],168 nM
same,pA2,[24],8.1
Cc1c(N=C2NCCN2)cccc1-c1ccccc1,Ki,[1],16 nM
same,Ki,[6],19 nM
same,Ki,[7],200 nM
CC1CCN(CC[C@H]2CCCN2S(=O)(=O)c2cccc(O)c2)CC1,pKb,[25],8.3
